Values quoted from earlier work, collected in patent US20030113270A1, “Vasoactive intestinal peptides for glaucomatous retinopathy” (priority 2001, published 2003).
Where no end group is shown, it is not given here.

Test system: neuronal survival

Row | Substance | neuroprotection (Alzheimer's disease-relevant models) | potency in promoting neuronal survival relative to VIP (more potent than VIP) [fold]
1 | vasoactive intestinal polypeptide (HSDAVFTDNYTRLRKQMAVKKYLNSILN; ends and bridges not checked; UniProt P01282 125-152, looked up) [VIP, 28 amino acid neuropeptide] | provide neuroprotection | 
2 | Stearyl-norleucine^17-VIP [SNV] |  | 100
